Results from US10280145B2 (Toray Industries, Inc., priority 2015, dated 2019).

Target: T1, intracellular domain of DDR1 (Homo sapiens, UniProt Q08345)
T1 construct: the intracellular domain of DDR1 (in a final concentration of 5 ng/μL) (Carna Biosciences, Inc.); purchased Carna Biosciences, Inc
Assay: Evaluation of DDR1 inhibition activity with HTRF KinEASE-TK kit
Type: biochemical
Details: DDR1 intracellular domain 5 ng/μL, ATP 25 μm/L, TK Substrate-biotin 1000 nmol/L, room temperature, one hour
Protocol: The DDR1 inhibition activity in the compounds of Examples 1 to 80 was evaluated with HTRF® KinEASE-TK kit (Cisbio Bioassays).
Each test substance was dissolved in dimethyl sulfoxide and then used for the evaluation as described below. Moreover, each of test substances and reagents was diluted in the kinase buffer (Cisbio Bioassays) prepared by adding thereto MgCl2, MnCl2, DTT, and the Supplemental Enzyme buffer (Cisbio Bioassays) to concentrations of 5 mmol/L, 0.5 mmol/L, 0.25 mmol/L, and 50 nmol/L, respectively, and then used. Each test substance (in DMSO in a final concentration of 1%), the intracellular domain of DDR1 (in a final concentration of 5 ng/μL) (Carna Biosciences, Inc.), the phosphate donor ATP (in final concentration of 25 μm/L) (Sigma), and the substrate TK Substrate-biotin (in a final concentration of 1000 nmol/L) (Cisbio Bioassays) were added to a 384-well black plate (Corning) and allowed to react at room temperature for one hour. After completion of the reaction, the TK Antibody-Cryptate (Cisbio Bioassays) and the Streptavidin-XL665 (Cisbio Bioassays) were added thereto and allowed to react at room temperature for one hour. In addition, the plate was provided with a well to which a test substance was not added, and with a well to which a test substance and the intracellular domain of DDR1 were […].
The fluorescence intensity in each well was measured using a multi-label counter (Envision, PerkinElmer; excitation wavelength: 320 nm, measurement wavelength: 665 nm and 620 nm) to calculate a ratio (the fluorescence intensity at 665 nm/the fluorescence intensity at 620 nm). The inhibition rate (%) of a test substance at each concentration was calculated based on the formula below: Inhibition rate (%)=([the ratio obtained from the well containing no test substance]−[the ratio from a well containing a test substance])/([the ratio obtained from the well containing no test substance]−[the ratio obtained from the well containing no intracellular domain of DDR1 and no test substance])×100.
The calculated inhibition rates were fitted to a sigmoidal dose-response curve by regression analysis using the Prism 5.04 (GraphPad Software, Inc.) to calculate the IC50 value of the test substance.

T1 sequence (Q08345 439-913 limits assumed): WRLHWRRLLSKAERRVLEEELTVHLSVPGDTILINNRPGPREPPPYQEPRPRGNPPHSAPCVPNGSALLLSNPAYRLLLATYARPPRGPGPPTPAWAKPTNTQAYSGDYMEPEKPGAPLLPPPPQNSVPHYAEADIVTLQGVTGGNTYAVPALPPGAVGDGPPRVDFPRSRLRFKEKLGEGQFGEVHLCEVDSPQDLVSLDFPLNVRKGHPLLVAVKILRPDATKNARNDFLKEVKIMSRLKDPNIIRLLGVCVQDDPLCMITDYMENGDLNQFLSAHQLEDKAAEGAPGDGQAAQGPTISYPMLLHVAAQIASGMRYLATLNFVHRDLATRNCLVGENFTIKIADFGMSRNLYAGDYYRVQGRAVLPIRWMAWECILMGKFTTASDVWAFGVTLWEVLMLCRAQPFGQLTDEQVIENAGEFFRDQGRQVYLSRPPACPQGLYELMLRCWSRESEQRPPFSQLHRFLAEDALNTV

Row | IC50 [nM] | Compound
1 | 349 | COc1ccc(OC(F)(F)F)cc1NC(=O)N[C@H]1CC[C@H](Oc2ncccn2)CC1 [Example 9, 1-(2-methoxy-5-(trifluoromethoxy)phenyl)-3-(trans-4-(pyrimidin-2-yloxy)cyclohexyl)urea]
2 | 25.2 | COc1ccc(OC(F)(F)F)cc1NC(=O)N[C@H]1CC[C@H](COCc2ccncc2)CC1 [Example 74, 1-(2-methoxy-5-(trifluoromethoxy)phenyl)-3-(trans-4-((pyridin-4-ylmethoxy)methyl)cyclohexyl)urea]
3 | 88.6 | O=C(Nc1cc(C(F)(F)F)ccc1O[C@@H]1CCNC1)N[C@H]1CC[C@H](OCc2ccncc2)CC1 [Example 35, 1-(trans-4-(pyridin-4-ylmethoxy)cyclohexyl)-3-(2-((R)-pyrrolidin-3-yloxy)-5-(trifluoromethyl)phenyl)urea]
4 | 402 | O=C(Nc1ccc(CO)c(C(F)(F)F)c1)N[C@H]1CC[C@H](OCc2ccncc2)CC1 [Example 23, 1-(4-(hydroxymethyl)-3-(trifluoromethyl)phenyl)-3-(trans-4-(pyridin-4-ylmethoxy)cyclohexyl)urea]
5 | 528 | O=C(Nc1cc(C(F)(F)F)ccc1Cl)N[C@H]1CC[C@H](Oc2ncccn2)CC1 [Example 58, 1-(2-chloro-5-(trifluoromethyl)phenyl)-3-(trans-4-(pyrimidin-2-yloxy)cyclohexyl)urea]
6 | 82.7 | COc1ccc(S(F)(F)(F)(F)F)cc1NC(=O)N[C@H]1CC[C@H](OCc2ccncc2)CC1 [Example 26, 1-(2-methoxy-5-(pentafluorosulfanyl)phenyl)-3-(trans-4-(pyridin-4-ylmethoxy)cyclohexyl)urea]
7 | 236 | COc1ccc(OC(F)(F)F)cc1NC(=O)N[C@H]1CC[C@H](Oc2ccnc(-c3cccnc3)n2)CC1 [Example 39, 1-(2-methoxy-5-(trifluoromethoxy)phenyl)-3-(trans-4-((2-(pyridin-3-yl)pyrimidin-4-yl)oxy)cyclohexyl)urea]
8 | 114 | O=C(Nc1cc(CO)cc(C(F)(F)F)c1)N[C@H]1CC[C@H](OCc2ccncc2)CC1 [Example 20, 1-(3-(hydroxymethyl)-5-(trifluoromethyl)phenyl)-3-(trans-4-(pyridin-4-ylmethoxy)cyclohexyl)urea]
9 | 98.4 | O=C(Nc1cc(C(F)(F)F)ccc1OC1COC1)N[C@H]1CC[C@H](Oc2ccncn2)CC1 [Example 66, 1-(2-(oxetan-3-yloxy)-5-(trifluoromethyl)phenyl)-3-(trans-4-(pyrimidin-4-yloxy)cyclohexyl)urea]
10 | 50.4 | 1-(2-(oxetan-3-yloxy)-5-(trifluoromethoxy)phenyl)-3-(trans-4-(pyridin-4-ylmethoxy)cyclohexyl)urea [Example 30]
11 | 46.2 | COc1ccc(OC(F)(F)F)cc1NC(=O)N[C@H]1CC[C@H](OCc2ccncc2)CC1 [Example 19, 1-(2-methoxy-5-(trifluoromethoxy)phenyl)-3-(trans-4-(pyridin-4-ylmethoxy)cyclohexyl)urea]
12 | 96.7 | COc1c(CO)cc(C(F)(F)F)cc1NC(=O)N[C@H]1CC[C@H](Oc2ncccn2)CC1 [Example 12, 1-(3-(hydroxymethyl)-2-methoxy-5-(trifluoromethyl)phenyl)-3-(trans-4-(pyrimidin-2-yloxy)cyclohexyl)urea]
13 | 963 | COc1ccc(OC(F)(F)F)cc1NC(=O)N[C@H]1CC[C@H](Oc2ccc(-c3ccccc3)nn2)CC1 [Example 16]
14 | 124 | COc1ccc(C(F)(F)F)cc1NC(=O)N[C@H]1CC[C@H](OCc2ccncc2)CC1 [Example 24, 1-(2-methoxy-5-(trifluoromethyl)phenyl)-3-(trans-4-(pyridin-4-ylmethoxy)cyclohexyl)urea]
15 | 427 | COc1ccc(S(F)(F)(F)(F)F)cc1NC(=O)N[C@H]1CC[C@H](Oc2ccnc(N3CCOCC3)n2)CC1 [Example 4, 1-(2-methoxy-5-(pentafluorosulfanyl)phenyl)-3-(trans-4-((2-morpholinopyrimidin-4-yl)oxy)cyclohexyl)urea]
16 | 13.4 | CNc1cc(O[C@H]2CC[C@H](NC(=O)Nc3cc(OC(F)(F)F)cc(CO)c3OC)CC2)ncn1 [Example 70, 1-(3-(hydroxymethyl)-2-methoxy-5-(trifluoromethoxy)phenyl)-3-(trans-4-((6-(methylamino)pyrimidin-4-yl)oxy)cyclohexyl)urea]
17 | 138 | COc1ccc(OC(F)(F)F)cc1NC(=O)N[C@H]1CC[C@H](Oc2ccnc(NCCO)n2)CC1 [Example 62, 1-(trans-4-((2-((2-hydroxyethyl)amino)pyrimidin-4-yl)oxy)cyclohexyl)-3-(2-methoxy-5-(trifluoromethoxy)phenyl)urea]
18 | 56.6 | O=C(Nc1cc(C(F)(F)F)ccc1OC1COC1)N[C@H]1CC[C@H](Oc2ccnc(-c3ccncc3)n2)CC1 [Example 47, 1-(2-(oxetan-3-yloxy)-5-(trifluoromethyl)phenyl)-3-(trans-4-((2-(pyridin-4-yl)pyrimidin-4-yl)oxy)cyclohexyl)urea]
